From US11111251B2, “Positive allosteric modulators of the muscarinic acetylcholine receptor M1” (Vanderbilt University, priority 2016, dated 2021)
Read-outs that look alike come from different tables or passages of the source.

Target: T1, human mAChR M1 (Homo sapiens, UniProt P11229)
T1 sequence (P11229 1-460): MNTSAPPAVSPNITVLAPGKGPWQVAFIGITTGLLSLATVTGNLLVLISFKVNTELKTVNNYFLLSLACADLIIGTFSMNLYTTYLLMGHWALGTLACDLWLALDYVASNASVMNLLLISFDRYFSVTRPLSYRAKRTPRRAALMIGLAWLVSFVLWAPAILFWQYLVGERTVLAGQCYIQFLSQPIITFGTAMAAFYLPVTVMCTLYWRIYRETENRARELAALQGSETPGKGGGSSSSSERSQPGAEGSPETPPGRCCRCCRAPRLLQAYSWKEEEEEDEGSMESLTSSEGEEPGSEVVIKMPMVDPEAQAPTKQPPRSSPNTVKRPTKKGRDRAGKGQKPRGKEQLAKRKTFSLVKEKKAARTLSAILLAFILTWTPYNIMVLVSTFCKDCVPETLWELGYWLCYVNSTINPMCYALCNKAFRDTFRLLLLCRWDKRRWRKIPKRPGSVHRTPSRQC
Assay: mAChR M1 cell-based functional assay: calcium mobilization, positive allosteric modulator mode (increase in EC20 acetylcholine response)
Details: for EC50: read-out: Human M1 EC50; for Emax: read-out: Human M1 Emax (%)
Method in brief: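 PAM potency reflects the concentration-dependent increase in calcium response to an EC20 acetylcholine challenge, given 144 s into a 300 s read after compound addition at 4 s (EC80 follows at 230 s). Cells were hM1-expressing CHO-K1, loaded 50 min with Fluo-4 AM. Curves used 11 points at 1:3 dilutions and four-parameter logistic fitting.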

SMILES	EC50 (Table 2, human M1) [nM]	Emax (Table 2, human M1) [%]	Emax [%]
Cn1ccc2nc(C(=O)NCC3CCOCC3)cc(Cc3ccc(-c4cscn4)cc3)c21 [Compound 466, 1-methyl-N-(tetrahydropyran-4-ylmethyl)-7-[(4-thiazol-4-ylphenyl)methyl]pyrrolo[3,2-b]pyridine-5-carboxamide]	364	72.2	–
Cn1cc(-c2ccc(Cc3cc(C(=O)N[C@H]4CCOC[C@@H]4O)nc4ccn(C)c34)cn2)cn1 [Compound 468, N-[(3R,4S)-3-hydroxytetrahydropyran-4-yl]-1-methyl-7-[[6-(1-methylpyrazol-4-yl)-3-pyridyl]methyl]pyrrolo[3,2-b]pyridine-5-carboxamide]	11.8	70	–
Cn1cc(-c2ccc(Cc3cc(C(=O)N[C@H]4CCCC[C@@H]4O)nc4ccn(C)c34)cn2)cn1 [Compound 469, N-[(1S,2S)-2-hydroxycyclohexyl]-1-methyl-7-[[6-(1-methylpyrazol-4-yl)-3-pyridyl]methyl]pyrrolo[3,2-b]pyridine-5-carboxamide]	29.8	72.3	–
Cn1cc(-c2ccc(Cc3cc(C(=O)NC4CCOCC4)nc4ccn(C)c34)cn2)cn1 [Compound 470, 1-methyl-7-[[6-(1-methylpyrazol-4-yl)-3-pyridyl]methyl]-N-tetrahydropyran-4-yl-pyrrolo[3,2-b]pyridine-5-carboxamide]	223	86	–
Cn1cc(-c2ccc(Cc3cc(C(=O)NC4CCOC(C)(C)C4)nc4ccn(C)c34)cn2)cn1 (centres unmarked) [Compound 472, N-(2,2-dimethyltetrahydropyran-4-yl)-1-methyl-7-[[6-(1-methylpyrazol-4-yl)-3-pyridyl]methyl]pyrrolo[3,2-b]pyridine-5-carboxamide]	422	85.6	–
Cn1ccc2nc(C(=O)N[C@H]3CCOC[C@@H]3O)cc(Cc3ccc(-c4nccs4)cc3)c21 [Compound 478, N-[(3R,4S)-3-hydroxytetrahydropyran-4-yl]-1-methyl-7-[(4-thiazol-2-ylphenyl)methyl]pyrrolo[3,2-b]pyridine-5-carboxamide]	6.24	53.2	–
Cn1ccc2nc(C(=O)N[C@H]3CCCC[C@@H]3O)cc(Cc3ccc(-c4nccs4)cc3)c21 [Compound 479, N-[(1S,2S)-2-hydroxycyclohexyl]-1-methyl-7-[(4-thiazol-2-ylphenyl)methyl]pyrrolo[3,2-b]pyridine-5-carboxamide]	41	52.5	–
Cn1ccc2nc(C(=O)N[C@H]3CC[C@@H]3O)cc(Cc3ccc(-c4nccs4)cc3)c21 [Compound 482, N-[(1S,2S)-2-hydroxycyclobutyl]-1-methyl-7-[(4-thiazol-2-ylphenyl)methyl]pyrrolo[3,2-b]pyridine-5-carboxamide]	171	61.2	–
Cn1ccc2nc(C(=O)N[C@H]3CCC[C@@H]3O)cc(Cc3ccc(-c4nccs4)cc3)c21 [Compound 483, N-[(1S,2S)-2-hydroxycyclopentyl]-1-methyl-7-[(4-thiazol-2-ylphenyl)methyl]pyrrolo[3,2-b]pyridine-5-carboxamide]	65	58.6	–
Cn1ccc2nc(C(=O)NC3CCOC(C)(C)C3)cc(Cc3ccc(-c4nccs4)cc3)c21 (centres unmarked) [Compound 484, N-(2,2-dimethyltetrahydropyran-4-yl)-1-methyl-7-[(4-thiazol-2-ylphenyl)methyl]pyrrolo[3,2-b]pyridine-5-carboxamide]	704	–	47.2
Cn1ccc2nc(C(=O)NC3CCOCC3(C)C)cc(Cc3ccc(-c4nccs4)cc3)c21 (centres unmarked) [Compound 485, N-(3,3-dimethyltetrahydropyran-4-yl)-1-methyl-7-[(4-thiazol-2-ylphenyl)methyl]pyrrolo[3,2-b]pyridine-5-carboxamide]	662	–	61.6
Cn1ccc2nc(C(=O)NCC3CCOCC3)cc(Cc3ccc(-c4nccs4)cc3)c21 [Compound 486, 1-methyl-N-(tetrahydropyran-4-ylmethyl)-7-[(4-thiazol-2-ylphenyl)methyl]pyrrolo[3,2-b]pyridine-5-carboxamide]	483	37.5	–
Cn1ccc2nc(C(=O)NC3CC(F)C3)cc(Cc3ccc(-c4nccs4)cc3)c21 (centres unmarked) [Compound 488, N-(3-fluorocyclobutyl)-1-methyl-7-[(4-thiazol-2-ylphenyl)methyl]pyrrolo[3,2-b]pyridine-5-carboxamide]	1150	37.5	–
Cn1ncc2nc(C(=O)N[C@@H]3CC[C@H]3O)cc(Cc3ccc(-c4cscn4)cc3)c21 [Compound 490, N-[(1R,2R)-2-hydroxycyclobutyl]-1-methyl-7-[(4-thiazol-4-ylphenyl)methyl]pyrazolo-[4,3-b]pyridine-5-carboxamide]	> 10000	61.9	–
Cn1ncc2nc(C(=O)N[C@H]3CCC[C@@H]3O)cc(Cc3ccc(-c4cscn4)cc3)c21 [Compound 491, N-[(1S,2S)-2-hydroxycyelopentyl]-1-methyl-7-[(4-thiazol-4-ylphenyl)methyl]pyrazolo-[4,3-b]pyridine-5-carboxamide]	1710	72.9	–
Cn1ncc2nc(C(=O)N[C@H]3CCCC[C@@H]3O)cc(Cc3ccc(-c4cscn4)cc3)c21 [Compound 492, N-[(1S,2S)-2-hydroxycyclohexyl]-1-methyl-7-[(4-thiazol-4-ylphenyl)methyl]pyrazolo-[4,3-b]pyridine-5-carboxamide]	504	73.3	–

Further lines, with some results ahead:

EC50 (Table 2, human M1) [nM]	Emax (Table 2, human M1) [%]	SMILES	Emax [%]
1870	72	Cn1ccc2nc(C(=O)N[C@@H]3CCOC3)cc(Cc3ccc(-c4cscn4)cc3)c21 [Compound 465, 1-methyl-N-[(3R)-tetrahydrofuran-3-yl]-7-[(4-thiazol-4-ylphenyl)methyl]pyrrolo[3,2-b]pyridine-5-carboxamide]	–
2970	61.2	Cn1ccc2nc(C(=O)NC3COC3)cc(Cc3ccc(-c4cscn4)cc3)c21 [Compound 467, 1-methyl-N-(oxetan-3-yl)-7-[(4-thiazol-4-ylphenyl)methyl]pyrrolo[3,2-b]pyridine-5-carboxamide]	–
390	85.4	Cn1cc(-c2ccc(Cc3cc(C(=O)NC4CC5(COC5)C4)nc4ccn(C)c34)cn2)cn1 [Compound 471, 1-methyl-7-[[6-(1-methylpyrazol-4-yl)-3-pyridyl]methyl]-N-(2-oxaspiro[3.3]heptan-6-yl)pyrrolo[3,2-b]pyridine-5-carboxamide]	–
106	85.8	Cn1ccc(-c2ccc(Cc3cc(C(=O)NC4CCOCC4)nc4ccn(C)c34)cc2)n1 [Compound 473, 1-methyl-7-[[4-(1-methylpyrazol-3-yl)phenyl]methyl]-N-tetrahydropyran-4-yl-pyrrolo[3,2-b]pyridine-5-carboxamide]	–
6.43	70.4	Cn1ccc(-c2ccc(Cc3cc(C(=O)N[C@H]4CCOC[C@@H]4O)nc4ccn(C)c34)cc2)n1 [Compound 474, N-[(3R,4S)-3-hydroxytetrahydropyran-4-yl]-1-methyl-7-[[4-(1-methylpyrazol-3-yl)phenyl]methyl]pyrrolo[3,2-b]pyridine-5-carboxamide]	–
183	83.5	Cn1ccc(-c2ccc(Cc3cc(C(=O)NC4CC5(COC5)C4)nc4ccn(C)c34)cc2)n1 [Compound 475, 1-methyl-7-[[4-(1-methylpyrazol-3-yl)phenyl]methyl]-N-(2-oxaspiro[3.3]heptan-6-yl)pyrrolo[3,2-b]pyridine-5-carboxamide]	–
280	83.5	Cn1ccc(-c2ccc(Cc3cc(C(=O)NCC4CCOCC4)nc4ccn(C)c34)cc2)n1 [Compound 476, 1-methyl-7-[[4-(1-methylpyrazol-3-yl)phenyl]methyl]-N-(tetrahydropyran-4-ylmethyl)pyrrolo[3,2-b]pyridine-5-carboxamide]	–
200	86.4	Cn1ccc(-c2ccc(Cc3cc(C(=O)NC4CCOCC4(C)C)nc4ccn(C)c34)cc2)n1 (centres unmarked) [Compound 477, N-(3,3-dimethyltetrahydropyran-4-yl)-1-methyl-7-[[4-(1-methylpyrazol-3-yl)phenyl]methyl]pyrrolo[3,2-b]pyridine-5-carboxamide]	–
360	57.2	Cn1ccc2nc(C(=O)NC3CCOCC3)cc(Cc3ccc(-c4nccs4)cc3)c21 [Compound 480, 1-methyl-N-tetrahydropyran-4-yl-7-[(4-thiazol-2-ylphenyl)methyl]pyrrolo[3,2-b]pyridine-5-carboxamide]	–
386	57	Cn1ccc2nc(C(=O)NC3CC4(COC4)C3)cc(Cc3ccc(-c4nccs4)cc3)c21 [Compound 481, 1-methyl-N-(2-oxaspiro[3.3]heptan-6-yl)-7-[(4-thiazol-2-ylphenyl)methyl]pyrrolo[3,2-b]pyridine-5-carboxamide]	–
819	25.5	Cn1ccc2nc(C(=O)NC3CC(F)(F)C3)cc(Cc3ccc(-c4nccs4)cc3)c21 [Compound 487, N-(3,3-difluorocyclobutyl)-1-methyl-7-[(4-thiazol-2-ylphenyl)methyl]pyrrolo[3,2-b]pyridine-5-carboxamide]	–
2750	52	Cn1ncc2nc(C(=O)NC3CC4(COC4)C3)cc(Cc3ccc(-c4cscn4)cc3)c21 [Compound 489, 1-Methyl-N-(2-oxaspiro[3.3]heptan-6-yl)-7-[(4-thiazol-4-ylphenyl)methyl]pyrazolo[4,3-b]pyridine-5-carboxamide]	–
